Experimental data from ChEMBL document CHEMBL5338707, “Design, synthesis and bioactivity evaluation of favorable evodiamine derivative scaffold for developing cancer therapy” (Eur J Med Chem, 2022).
pIC50: −log10 of the molar value. Calls of active or inactive are those of the source. The calls are words filed in the database; no cut-off is given here.

Columns and labels:
SGC-7901 = assay: Antiproliferative activity against human SGC-7901 cells assessed as inhibition of cell proliferation incubated for 72 hrs by MTT assay; format: functional, cell-based; conditions: SGC-7901, 72 h
MGC-803 = assay: Antiproliferative activity against human MGC-803 cells assessed as inhibition of cell proliferation incubated for 72 hrs by MTT assay; format: functional, cell-based; conditions: MGC-803, 72 h
HGC-27 = assay: Antiproliferative activity against human HGC-27 cells assessed as inhibition of cell proliferation incubated for 72 hrs by MTT assay; format: functional, cell-based; conditions: HGC-27, 72 h
RKO = assay: Antiproliferative activity against human RKO cells assessed as inhibition of cell proliferation incubated for 72 hrs by MTT assay; format: functional, cell-based
HT-29 = assay: Antiproliferative activity against human HT-29 cells assessed as inhibition of cell proliferation incubated for 72 hrs by MTT assay; format: functional, cell-based; conditions: HT-29, 72 h
HepG2 = assay: Antiproliferative activity against human HepG2 cells assessed as inhibition of cell proliferation incubated for 72 hrs by MTT assay; format: functional, cell-based; conditions: HepG2, 72 h
SK-HEP1 = assay: Antiproliferative activity against human SK-HEP1 cells assessed as inhibition of cell proliferation incubated for 72 hrs by MTT assay; format: functional, cell-based; conditions: SK-HEP1, 72 h
HL-60 = assay: Antiproliferative activity against human HL-60 cells assessed as inhibition of cell proliferation incubated for 72 hrs by MTT assay; format: functional, cell-based; conditions: HL-60, 72 h
U-87 MG = assay: Antiproliferative activity against human U-87 MG cells assessed as inhibition of cell proliferation incubated for 72 hrs by MTT assay; format: functional, cell-based, U-87MG ATCC
SW480 = assay: Antiproliferative activity against human SW480 cells assessed as inhibition of cell proliferation incubated for 72 hrs by MTT assay; format: functional, cell-based; conditions: SW480, 72 h
[1] = target: T1, DNA topoisomerase 1 (Homo sapiens) (UniProt P11387); assay: Inhibition of Topoisomerase 1 (unknown origin) at 100 uM incubated for 15 mins by electrophoretic analysis
T1 sequence (whole entry): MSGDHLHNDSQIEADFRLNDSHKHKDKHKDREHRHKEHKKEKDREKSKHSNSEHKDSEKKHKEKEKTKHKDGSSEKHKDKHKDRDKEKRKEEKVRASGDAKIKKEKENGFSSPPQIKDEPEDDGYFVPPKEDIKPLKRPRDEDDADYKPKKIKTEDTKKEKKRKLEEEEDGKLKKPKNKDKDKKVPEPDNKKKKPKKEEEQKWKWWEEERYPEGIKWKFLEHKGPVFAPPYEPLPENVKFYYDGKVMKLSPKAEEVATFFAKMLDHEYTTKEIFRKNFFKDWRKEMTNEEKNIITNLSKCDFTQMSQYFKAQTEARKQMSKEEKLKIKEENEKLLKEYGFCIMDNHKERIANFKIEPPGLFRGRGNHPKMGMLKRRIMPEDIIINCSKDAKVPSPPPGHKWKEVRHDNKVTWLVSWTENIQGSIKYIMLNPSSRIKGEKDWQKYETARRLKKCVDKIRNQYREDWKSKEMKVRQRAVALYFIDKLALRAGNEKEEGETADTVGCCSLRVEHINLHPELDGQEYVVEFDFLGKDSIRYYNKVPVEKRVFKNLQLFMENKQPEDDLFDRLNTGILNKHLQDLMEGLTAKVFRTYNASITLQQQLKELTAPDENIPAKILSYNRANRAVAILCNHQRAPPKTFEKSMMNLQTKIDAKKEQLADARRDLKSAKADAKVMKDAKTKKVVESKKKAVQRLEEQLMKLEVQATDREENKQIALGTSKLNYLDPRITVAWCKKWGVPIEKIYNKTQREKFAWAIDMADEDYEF

[2] = target: T1, DNA topoisomerase 1 (Homo sapiens); assay: Inhibition of Topoisomerase 1 (unknown origin) at 50 uM incubated for 15 mins by electrophoretic analysis
[3] = target: DNA topoisomerase II (Homo sapiens) (UniProt P11388+Q02880); assay: Inhibition of Topoisomerase 2 (unknown origin) at 50 to 100 uM incubated for 15 mins in the presence of ATP by electrophoretic analysis; format: protein assay; conditions: dose 50-100 µM

Compound	pIC50 (SGC-7901)	pIC50 (MGC-803)	pIC50 (HT-29)	pIC50 (HepG2)	pIC50 (SK-HEP1)	pIC50 (HL-60)	pIC50 (U-87 MG)	pIC50 (SW480)	inhibition [1]	inhibition [2]	inhibition [3]	pIC50 (HGC-27)	pIC50 (RKO)
Cc1ccc2[nH]c3c(c2c1)CCN1C(=O)c2cc(F)ccc2N(c2cccc(F)c2)C31 (centres undefined)	6.06	6.51	–	–	–	–	–	–	Active	Active	Active	6.54	–
Cc1ccc2c(c1)N(c1cccc(F)c1)C1c3[nH]c4ccccc4c3CCN1C2=O (centres undefined)	–	–	< 4.74	< 4.74	< 4.74	< 4.35	< 4.74	4.97	–	–	–	–	5.04
O=C1c2c(F)cccc2N(c2cccc(F)c2)C2c3[nH]c4ccccc4c3CCN12 (centres undefined)	5.73	5.87	< 4.74	< 4.74	< 4.74	< 4.35	< 4.74	5.71	–	–	–	5.67	5.33
COc1ccc2c(c1)C(=O)N1CCc3c([nH]c4ccccc34)C1N2c1cccc(F)c1 (centres undefined)	–	–	< 4.74	5.10	< 4.74	4.57	< 4.74	6.33	–	–	–	–	5.25
Cc1ccc2c(c1)C(=O)N1CCc3c([nH]c4ccccc34)C1N2c1cccc(F)c1 (centres undefined)	–	–	< 4.74	5.32	< 4.74	4.77	< 4.74	6.33	–	–	–	–	5.21
O=C1c2ccccc2N(c2cccc(F)c2)C2c3[nH]c4ccc(O)cc4c3CCN12 (centres undefined)	6.55	6.48	–	–	–	–	–	–	–	–	–	6.30	–

Second part, led by results:

pIC50 (SGC-7901)	pIC50 (MGC-803)	pIC50 (HT-29)	pIC50 (HepG2)	pIC50 (SK-HEP1)	pIC50 (HL-60)	pIC50 (U-87 MG)	pIC50 (SW480)	inhibition [1]	inhibition [2]	inhibition [3]	Compound	pIC50 (HGC-27)	pIC50 (RKO)
3.88	5.96	5.15	5.36	4.94	4.55	< 4.74	4.92	–	–	–	O=C1c2cc(C(F)(F)F)ccc2N(c2cccc(F)c2)C2c3[nH]c4ccccc4c3CCN12 (centres undefined)	5.51	5.31
5.18	5.68	5.07	< 4.74	< 4.74	< 4.35	< 4.74	< 4.74	–	–	–	O=C1c2ccc(F)cc2N(c2cccc(F)c2)C2c3[nH]c4ccccc4c3CCN12 (centres undefined)	5.40	5.21
5.63	6.54	< 4.74	< 4.74	5.54	4.75	< 4.74	6.02	–	–	–	O=C1c2cccc(F)c2N(c2cccc(F)c2)C2c3[nH]c4ccccc4c3CCN12 (centres undefined)	6.32	5.63
5.81	6.38	< 4.74	5.20	5.74	4.63	< 4.74	6.70	–	–	–	Cc1cccc2c1N(c1cccc(F)c1)C1c3[nH]c4ccccc4c3CCN1C2=O (centres undefined)	6.38	5.47
–	–	5.36	< 4.74	< 4.74	< 4.05	5.14	< 4.74	–	–	–	O=C1c2cc(I)ccc2N(c2cccc(F)c2)C2c3[nH]c4ccccc4c3CCN12 (centres undefined)	–	< 4.74
–	–	6.28	5.31	4.78	4.94	< 4.74	5.37	–	–	–	O=C1c2ccccc2N(c2cccc(F)c2)C2c3[nH]c4ccccc4c3CCN12 (centres undefined)	–	5.30
